Where two headings read alike, the source gives them in different places.
How the values were obtained:
[1] = test system: 22RV1; test: Cell proliferation assay (CellTiterGlo, 72 h), 22RV1; type: cell-based; conditions: Homo sapiens, read-out: 22Rv1 ATP average IC50
Protocol: All incubations were performed at 37° C. in a humidified carbon dioxide incubator.
(§1) The cells were seeded in a 96-well plate (white wall/transparent bottom) at 5000 cells/well and cultured overnight.
(§2) On day 2, A stock solution of the compound at a concentration of 10 mM was subjected to an 8-fold serial dilution to obtain 8 concentration points. 2 μL of the compound solution at each concentration point was added to 98 μL of fresh medium, and the mixture was mixed homogeneously. Then, 5 μL of the compound solution diluted in the medium at each concentration point was added to 100 μL of overnight medium containing the cells, and 2 replicates were set for each concentration. The mixture was cultured for 72 h.
(§3) After 72 h of compound treatment, the plate was equilibrated to room temperature, 100 μL of CellTiterGlo (Promega) was added. The mixture was mixed homogeneously for 2 min, left to stand at room temperature for 10 min, and then read for luminescence values on a SpectraMax M5 microplate reader to evaluate cell viability. The positive control was 1% Tween-20 and the negative control was 0.1% DMSO. IC50 was generated by 4-parameter non-linear regression fitting in GraphPad Prism.

[2] = test system: LNCaP; test: Cell proliferation assay (CellTiterGlo, 72 h), LNCaP; type: cell-based; conditions: Homo sapiens, LNCap cells, 72 h compound treatment, read-out: LNCap ATP average IC50
Protocol: The cell line used was 22RV1 or LNCaP, and the medium was RPMI-1640 containing 10% FBS and antibiotics. All incubations were performed at 37° C. in a humidified carbon dioxide incubator.
On day 1, cells were digested with 0.25% trypsin (containing EDTA) and collected by centrifugation.
as §1, §2, §3

[3] = molecular target: BRD4 (Homo sapiens, UniProt O60885); test: BRD4 degradation assay (Western-blot / Simple Western) in 22RV1; conditions: 22RV1 cells, target content as percentage of control (DMSO = 100%)
[4] = 22Rv1 cells, 72 h compound treatment, CellTiterGlo

| Compound | IC50 [1, 4] [nM] | IC50 [2] [nM] | BRD4 degradation of 22RV1 (200 nM 5 h) [3] | IC50 ([1]; 22Rv1, 72 h) [nM] |
| --- | --- | --- | --- | --- |
| Cc1sc2c(c1C)C(c1ccc(/C=C/CNO)cc1)=N[C@@H](CC(=O)OC(C)(C)C)c1nnc(C)n1-2 [Compound 9011] | < 50 | < 50 | A (A<20%) | – |
| CONC/C=C/c1ccc(C2=N[C@@H](CC(=O)OC(C)(C)C)c3nnc(C)n3-c3sc(C)c(C)c32)cc1 [Compound 9065] | < 50 | < 50 | B (20%<B<50%) | – |
| Cc1sc2c(c1C)C(c1ccc(-c3ccc(CN)o3)cc1)=N[C@@H](CC(=O)OC(C)(C)C)c1nnc(C)n1-2 [Compound 9071] | 50 to 200 | 50 to 200 | C (50%<C<80) | – |
| COc1ccc2c(c1)C(c1ccc(/C=C/CNO)cc1)=N[C@@H](CC(=O)OC(C)(C)C)c1nnc(C)n1-2 [Compound 9077] | – | < 50 | A (A<20%) | < 50 |
| CONCC#Cc1ccc(C2=N[C@@H](CC(=O)OC(C)(C)C)c3nnc(C)n3-c3ccc(OC)cc32)cc1 [Compound 9078] | – | < 50 | B (20%<B<50%) | < 50 |
| CONC/C=C/c1ccc(C2=N[C@@H](CC(=O)OC(C)(C)C)c3nnc(C)n3-c3ccc(OC)cc32)cc1 [Compound 9079] | – | < 50 | A (A<20%) | < 50 |
| COc1ccc2c(c1)C(c1ccc(C#CCN)cc1)=N[C@@H](CC(=O)OC(C)(C)C)c1nnc(C)n1-2 [Compound 9080] | – | 50 to 200 | B (20%<B<50%) | < 50 |
| Cc1noc2c1-c1ccccc1C(c1ccc(C#CCN)cc1)=N[C@H]2CC(=O)OC(C)(C)C [Compound 9098] | > 500 | > 500 | – | – |
| Cc1sc2c(c1C)C(c1ccc(C#CCN)cc1)=N[C@@H](CC(=O)OC1(C)CC1)c1nnc(C)n1-2 [Compound 9103] | – | < 50 | B (20%<B<50%) | < 50 |
| CNC(=O)C#Cc1ccc(C2=N[C@@H](CC(=O)OC(C)(C)C)c3nnc(C)n3-c3sc(C)c(C)c32)cc1 [Compound 9104] | < 50 | – | D (80%<D<100%) | – |
| CC(=O)N(O)C/C=C/c1ccc(C2=N[C@@H](CC(=O)OC(C)(C)C)c3nnc(C)n3-c3sc(C)c(C)c32)cc1 [Compound 9109] | 200 to 500 | 50 to 200 | C (50%<C<80) | – |
| Cc1sc2c(c1C)C(c1ccc(/C=C/CNC(=N)N)cc1)=N[C@@H](CC(=O)OC(C)(C)C)c1nnc(C)n1-2 [Compound 9110] | > 500 | > 500 | – | – |
| Cc1sc2c(c1C)C(c1ccc(C#CCNC(=N)NO)cc1)=N[C@@H](CC(=O)OC(C)(C)C)c1nnc(C)n1-2 [Compound 9111] | 200 to 500 | 50 to 200 | D (80%<D<100%) | – |
| Cc1sc2c(c1C)C(c1ccc(C#CCN)cc1)=N[C@@H](CC(=O)OCC1(C)COC1)c1nnc(C)n1-2 [Compound 9112] | – | 50 to 200 | D (80%<D<100%) | 50 to 200 |
| Cc1sc2c(c1C)C(c1ccc(/C=C/CNC(=N)NO)cc1)=N[C@@H](CC(=O)OC(C)(C)C)c1nnc(C)n1-2 [Compound 9114] | 50 to 200 | – | C (50%<C<80) | – |
| COC(=O)C=Cc1ccc(C2=N[C@@H](CC(=O)OC(C)(C)C)c3nnc(C)n3-c3sc(C)c(C)c32)cc1 [Compound 9118] | 200 to 500 | < 50 | – | – |
| Cc1noc2c1-c1ccccc1C(c1ccc(/C=C/CN)cc1)=N[C@H]2CC(=O)OC(C)(C)C [Compound 9122] | > 500 | 50 to 200 | – | – |
| Cc1sc2c(c1C)C(c1ccc(C3CC3CNO)cc1)=N[C@@H](CC(=O)OC(C)(C)C)c1nnc(C)n1-2 (some centres unmarked) [Compound 9123] | < 50 | < 50 | – | – |
| Cc1sc2c(c1C)C(c1ccc(/C=C/C=N/O)cc1)=N[C@@H](CC(=O)OC(C)(C)C)c1nnc(C)n1-2 [Compound 9132-A] | 50 to 200 | < 50 | D (80%<D<100%) | – |
| Cc1sc2c(c1C)C(c1ccc(/C=C/C=N\O)cc1)=N[C@@H](CC(=O)OC(C)(C)C)c1nnc(C)n1-2 [Compound 9132-B] | 50 to 200 | 50 to 200 | D (80%<D<100%) | – |
| Cc1sc2c(c1C)C(c1ccc(C#CCN)cc1)=N[C@@H](Cc1nccs1)c1nnc(C)n1-2 [Compound 9135] | – | < 50 | B (20%<B<50%) | 50 to 200 |
